The values that follow come from patent US20110262945A1, “GLYCOPROTEIN PRODUCTION METHOD AND SCREENING METHOD” (OTSUKA CHEMICAL CO., LTD., priority 2008, published 2011).

The structures appear in SMILES notation. Where a SMILES comes first, the peptide text is derived from it. [ ]: non-standard residue; d: D form. Thz = O=C(O)[C@@H]1CSCN1

Assay [1] has as its target T1, Chymotrypsin (Bos taurus, UniProt P00766). Nature of the assay: Michaelis-Menten plot of the substrate peptide (degradation by chymotrypsin). In kind it is biochemical. Set-up: unit not given here. The following applies: 30 minutes at 37° C. As to the method:
(§1) Into 1 mL of a 0.1 M phosphate buffer (pH 8.0, containing BSA (0.1 mg/mL)), 3.1 mg of the 14-residue peptide thus synthesized (SEQ ID NO:16) was dissolved to prepare a 2 mM solution. This solution was diluted to prepare substrate solutions having concentrations of 1.6 mM, 1.2 mM, 0.8 mM, 0.4 mM, 0.2 mM, 0.1 mM, and 0.05 mM. Separately, chymotrypsin (1 mg) was dissolved in 1 mL of a 0.1 M phosphate buffer (pH 8.0, containing BSA (0.1 mg/mL)). The resulting solution was diluted 10-fold, and further diluted 10-fold. The above operation was repeated so that a solution of 0.1 μg/mL was prepared. Into the same Eppendorf tube, 50 μL of a substrate solution of each concentration that was sufficiently cooled on ice and 50 μL of the enzyme solution were transferred, followed by incubation for 30 minutes at 37° C. After 30 minutes, the reaction was terminated by addition of 10 μL of 1N hydrochloric acid. Then, 20 μL of the resulting reaction solution was mixed with 80 μL of buffer to make up a total of 100 μL, which was then measured by HPLC. A degradation rate per unit time (a reaction rate per unit time) was calculated from the peak area of HPLC of the reaction product (FIG. 36).

Assay [2] deals with T1, Chymotrypsin. Nature of the assay: Lineweaver-Burk plot of the substrate peptide (degradation by chymotrypsin). In kind it is biochemical. The following applies: 30 minutes at 37° C. As to the method:
as §1, with “mg/mL)), 1.5” for “mg/mL)), 3.1”, “a 1” for “a 2”, “of 1” for “of 1.6”, “mM, 500 μM, 333 μM, 250 μM,” for “mM, 1.2 mM, 0.8 mM, 0.4 mM, 0.2 mM, 0.1 mM,”, “and 200 μM.” for “and 0.05 mM.”, “(FIG. 37).” for “(FIG. 36).”

Turning to `C[C@@H](O)[C@H](NC(=O)[C@H](CCCCN)NC(=O)[C@H](CC(N)=O)NC(=O)[C@H](CC(=O)O)NC(=O)[C@H](CO)NC(=O)CNC(=O)[C@@H]1CSCN1)C(=O)N[C@@H](Cc1ccc(O)cc1)C(=O)NCC(=O)N[C@@H](CC(N)=O)C(=O)N[C@@H](CCCCN)C(=O)N[C@@H](CS)C(=O)N[C@@H](CC(N)=O)C(=O)N[C@@H](Cc1ccccc1)C(=O)O` [substrate peptide] (H-[Thz]GSDNKTYGNKCNF-OH), the “V (reaction rate per unit time)” value was 0.013 in assay [1] (substrate 0.05 mM); 0.027 in assay [1] (substrate 0.1 mM); 0.046 in assay [1] (substrate 0.2 mM); 0.068 in assay [1] (substrate 0.4 mM); 0.075 in assay [1] (substrate 0.6 mM); 0.083 in assay [1] (substrate 0.8 mM). Further, the “V (reaction rate per unit time)” value in assay [1] (substrate 1 mM) amounted to 0.087. In addition, the “1/V (inverse of the reaction rate)” value in assay [2] (1/Substrate 2 1/mM) was determined as 7.02 mol⁻¹ min⁻¹; in assay [2] (1/Substrate 4 1/mM) it was 8.51 mol⁻¹ min⁻¹; in assay [2] (1/Substrate 6 1/mM), 11.9 mol⁻¹ min⁻¹; in assay [2] (1/Substrate 8 1/mM) it was 10.9 mol⁻¹ min⁻¹; in assay [2] (1/Substrate 10 1/mM) it was 14.7 mol⁻¹ min⁻¹.
